Assay results as given in patent publication US20210087565A1, “ANTISENSE ANTIBIOTICS AND BACTERIAL SECRETION BASED DELIVERY SYSTEM TO ELIMINATE DRUG-RESISTANT BACTERIA” (priority 2018, published 2021).
Values joined by “and” are separate entries in the source; they are usually repeats but may differ in a detail not shown here. Identical values can stand only once. “Also recorded” adds a separate entry of the source.

Columns and labels:
[1] = test system: CRE E. coli; experiment: PNA growth assay (optical density) on clinical isolate; assay type: cell-based, Escherichia coli; conditions: for growth inhibition: 10 μM PNA, optical density vs no treatment at 16 hours
Procedure: (§1) Bacterial Cell culture: The clinical isolates were obtained from the lab of Nancy Madinger at the University of Colorado Anschutz campus. Clinical isolates were grown in Cation Adjusted Mueller Hinton broth (CAMHB) (Becton, Dickinson and Company 212322) at 37° C. with 225 rpm shaking or on solid CAMHB with 1.5% agar at 37° C. Clinical isolates were maintained as freezer stocks in 90% CAMHB, 10% glycerol at −80° C. Freezer stocks were streaked out onto solid CAMHB and incubated for 16 h to produce single colonies prior to experiments. For each biological replicate, a single colony was picked from solid media and grown for 16 h in liquid CAMHB prior to experiments. Non-clinical isolates, such as E. coli MG1655 (ATCC700926) and Salmonella entorica serovar typhimurium SL1344, were cultured in liquid 2% lysogeny broth (LB) or on 2% LB with 1.5% agar for solid plates. S. typhimurium cultures were supplemented with 30 μg/mL streptomycin and SL1344 strains containing plasmids pFPV (SL1344-mCherry) or pRG1 modified with a lacIq promoter (SL1344-Holin) were supplemented with 100 μg/mL ampicillin. Freezer stocks were stored in 60% LB broth, 40% glycerol at −80° C. Freezer stocks were streaked out onto solid LB and incubated for 16 h to produce single colonies before experiments. For biological replicates, single colonies were started in liquid LB and grown for 16 hours prior to experiments. E. coli MG1655 PNA growth experiments were carried out in M9 media (1×M9 minimal media salts solution (MP Biomedicals), 2.0 mM MgSO4, and 0.1 mM CaCl2 in sterile water) with 0.4% glucose.
(§2) PNA growth assay: Biological replicates were diluted 1:10,000 into treatment condition in 384-well plates and measured for 24 h in a Tecan GENios at 562 nm with a bandwidth of 35 nm. Media absorbance blanks were subtracted from data prior to analysis. Normalized optical density (OD) data is shown normalized to the time point where the “no treatment” growth curves reached saturation phase which varied across biological replicates.

[2] = test system: ESBL KPN; experiment: as above; assay type: cell-based, Klebsiella pneumoniae
Procedure: as §1, §2

[3] = test system: MDR STm; experiment: as above; assay type: cell-based, Salmonella enterica serovar typhimurium; conditions: for growth inhibition: MDR STm, 10 μM PNA, optical density vs no treatment at 16 hours; for monotherapy effect (in words): clinical isolate of Salmonella
Procedure: as §1, §2

[4] = test system: E. coli MG1655; experiment: Growth curves and CFU of lab strain treated with PNA; assay type: cell-based, Escherichia coli; conditions: 10 μM
Procedure: FIG. 7. Dose response of various PNA. Optical density of a 1:10,000 dilution of MG6155 from overnight liquid culture, treated with various concentrations of antisense inhibitors was measured for 3 biological replicates with error bars as standard deviations. Normalized growth was measured as the optical density at 22 hours normalized to no treatment. An asterisk (*) indicates a significant difference (p<0.05) as compared to no treatment for each inhibitor.
FIG. 8. Antisense Inhibitors targeting novel pathways can inhibit growth of E. coli. z. (A) Growth curves of E. coli MG1655 from a 1:10,000 dilution from an overnight culture, normalized to time t=0 with 10 μM of respective antisense inhibitor. […] (B) Colony forming units per milliliter of MG1655 E. coli for respective treatment as a function of time. The CFU/mL at t=0 represents the starting culture after a 1:100,000 dilution from overnight culture. […] Significance is measured as p<0.05.
as §1
PNA growth assay: Biological replicates were diluted 1:10,000 into treatment condition in 384-well plates and measured for 24 h in a Tecan GENios at 562 nm with a bandwidth of 35 nm. Media absorbance blanks were subtracted from data prior to analysis. […]

[5] = test system: HeLa cells; experiment: Cytotoxicity in HeLa cells (lactate dehydrogenase assay); assay type: cell-based, human; conditions: for lethality to human epithelial cells (in words): HeLa, range of concentrations
Procedure: FIG. 12. Cytotoxicity measurement of varying concentration of PNA in HeLa cells. HeLa cells were plated on tissue culture treated 96-well plates at 4,500 cells per well. Varying concentrations of α-lexA and α-nonsense were added exogenously after 24 hours of growth and incubated in growth conditions for 18 hours. Cytotoxicity was measured using a lactate dehydrogenase assay and absorbance read at 450 nm with a blank (growth media with lactate dehydrogenase assay) subtracted. […] Error bars are standard deviation.

[6] = test system: 60 nucleotide single-stranded DNA fragments containing the complementation site; experiment: Electrophoretic mobility shift assay (EMSA); assay type: binding; conditions: PNA 1 μM, DNA fragments 500 nM; complementary vs nonsense DNA
Procedure: FIG. 5. PNA binding to off-target start codons. (A) The set of potential PNA candidates identified from the Keio collection were screened against the entire E. coli MG1655 genome to identify the distribution of off-target alignments when allowing for zero base mismatches in the alignment (left) and one base mismatch (right). In the 0-basepair mismatch analysis, all chosen PNAs that were tested had no other start codon alignments within the genome, whereas in the one base mismatch alignment, the number of start codon alignments distribute across zero to five alignments. (B) Electrophoretic mobility shift assay (EMSA) depicting 60 nucleotide single-stranded DNA fragments containing the complementation site for their corresponding PNA. Nonsense DNA was a random 60 nucleotide single-stranded DNA sequence that contained no complementation sites for PNA binding. […] Bands corresponding to PNA+complementary DNA are shifted above the unbound DNA (red triangles). Corresponding PNA+nonsense DNA bands are seen in lanes 3 and 5, with lane 3 having slight cross-over bands coming from lane 2. All lanes are from the same gel.
Gel Shift Mobility Assay: Synthetic DNA oligonucleotides that are 57-60 nucleotides in length were incubated with their respective PNA binding site at 37° C. overnight. The concentration of the DNA fragments was held at 500 nM, while the PNA was always in excess at 1 μM. […]

For “α-lexA: 12-mer antisense PNA cGGAATGAAAGC (SEQ ID NO. 17) targeting lexA, conjugated to (KFF)3K cell penetrating peptide via AEEA-linker (antisense CGGAATGAAAGC; all peptide nucleic acid (PNA); (KFF)3K cell-penetrating peptide attached via AEEA linker)”, the growth inhibition [1] was 51±8.1%, the “monotherapy effect (in words)” value ([2]; 10 μM) was “no or minimal growth inhibition” and the growth inhibition [3] was 62±5.4%. For the same substance, the “monotherapy effect (in words)” value [3] was “effective against the clinical isolate of Salmonella”, the “effect on growth (in words)” value [4] was “complete suppression of cell growth” and the “concentration up to which no significant difference in cytotoxicity to negative control was seen” value ([5]; HeLa cells, 18 hours, lactate dehydrogenase assay, p>0.05) was “up to 40 μM”. For the same substance, the “lethality to human epithelial cells (in words)” value [5] was “not found to be lethal” and the “binding specificity by EMSA (in words)” value [6] was “showed specificity to their targets; also recorded: show binding specificity to their target”.
For “α-rpsD: 12-mer antisense PNA AGAAAATGGCAA (SEQ ID NO. 19) targeting rpsD, conjugated to (KFF)3K cell penetrating peptide via AEEA-linker (all peptide nucleic acid (PNA); (KFF)3K cell-penetrating peptide attached via AEEA linker)”, the “monotherapy effect (in words)” value ([1]; 10 μM) was “effective in killing”, the growth inhibition [1] was 99±0.4% and 99% and the growth inhibition ([2]; 10 μM PNA, optical density vs no treatment at 16 hours) was 82%±8.8. For the same substance, the growth inhibition [3] was 99±0.1% and 99%, the “monotherapy effect (in words)” value [3] was “effective against the clinical isolate of Salmonella” and the “effect on growth (in words)” value [4] was “effective in killing; also recorded: complete suppression of cell growth”. The “colony forming units per milliliter” value ([4]; within 2 hours of treatment) was 0 CFU/mL, the “lethality to human epithelial cells (in words)” value [5] was “not found to be lethal” and the “binding specificity by EMSA (in words)” value [6] was “showed specificity to their targets; also recorded: show binding specificity to their target”.
